Experimental data reported in patent US10266838B2, “Methods for enhancing root growth of plants” (Academia Sinica, priority 2013, dated 2019).

What was measured:
Tainung 67 seedlings = experiment: root growth of rice seedlings on half-strength MS medium containing ABA and/or NPA; format: in vivo, Oryza sativa L. cv Tainung 67; design: lateral root morphology: dose or concentration left out as unconfirmed
Text: Three-day-old seedlings of Tainung 67 (T) transgenic lines were transferred to half-strength MS medium without sugar but containing ABA or sorbitol, and root morphology was examined. (A) Morphology of various branch roots.
Three-day-old seedlings of Tainung 67 (T) transgenic lines that containing seminal roots only were transferred to half-strength MS (½) medium without sugar but containing ABA and/or NPA for 11 days, and root morphology was examined. […] The dots indicate starting points of root growth after transferring to MS medium containing ABA and/or NPA.
Rice cultivars Oryza sativa L. cv Tainung 67 and Oryza sativa L. cv Kitaake were used for all experiments. Plasmid was introduced into Agrobacerium tumefaciens strain EHA101 and rice transformation was performed as described (Chen P-W, et al. (2002) J Biol Chem 277:13641-13649). Homozygous transgenic lines were used in all experiments. For observation of root growth, transgenic rice seeds were germinated on the surface of half-strength MS medium without sugar but with or without ABA. For hydroponic culture, Yoshida solution was used. Seedlings were normally grown in 28′C incubator with 12 hr daily light.
Rice branch roots could be classified into four types: seminal root, also called radical, the first root grows during germination; crown roots, roots emerge from the node of coleoptile; adventitious roots, roots differentiate from the nodes of main stem and tillers, lateral roots, roots branch from above three types of roots and can bear additional large or small lateral roots until the fifth order of branching. The number of each type of root was measured by simple counting. Root length was measured, number of roots was counted, and lateral root density was determined by dividing lateral root number with root length. Error bars represent SD (n=12). Significance levels: *P<0.05, **P<0.01, ***P<0.001.
In medium without any treatment, newly grown crown and lateral roots were more abundant in Tainung 67 transgenic lines than in WT (FIG. 12(A)). […] In the presence of NPA, growth of all types of roots was inhibited (FIG. 12(C)).

PIN genes = experiment: quantitative real-time RT-PCR of auxin transporter genes in roots; format: in vivo, rice; conditions: Yoshida solution with or without 0.2 μM ABA for 14 days, root RNA
Description: Four-day-old seedlings of Tainung 67 (T) transgenic lines were germinated on MS medium for four days and transfer to full strength Yoshida solution with or without 0.2 μM ABA for 14 days. Total RNA was extracted from roots and subjected to quantitative real-time RT-PCR.
To determine whether the promotion of root growth by HVA1 in transgenic rice involves the auxin (IAA)-dependent pathway, the expression of various genes involved in auxin transport and signaling were determined. […] The rice PIN family is encoded by 12 genes, with expression of each being spatially and temporally regulated (Wang J R, et al. (2009) Mol Plant 2(4):823-831).

rice half seeds = experiment: rice half-seed transient expression assay, GUS activity; format: cell-based; conditions: rice half seeds transfected by particle bombardment, with vs without 10 μM ABA for 16 h
Description: (§1) (A) Three copies of ABRC321 confer high ABA inducibility in a rice half-seed transient expression assay. Rice half seeds were transfected with plasmids shown in FIG. 1 by particle bombardment, and incubated with (+) or without (−) 10 μM ABA for 16 h, and GUS activity was analyzed. (B) Three copies of ABRC321 confer high ABA inducibility in leaves and roots in transgenic rice. Constructs shown in FIG. 1 were introduced into the rice genome. Leaves and roots of 10-day-old T2 seedlings of four transgenic lines were collected and incubated in water with (+) or without (−) 10 μM ABA for 16 h, and GUS activity was analyzed. Numbers above bars indicate fold induction of GUS activity by ABA. Error bars represent SD (n=3).
Two 56-bp complementary oligonucleotides, containing the CE3 and A2 elements from the HVA1 promoter and the CE1 element from the HVA22 promoter (Shen Q, Zhang P, & Ho T H (1996) Plant Cell 8(7):1107-1119) and restriction sites KpnI, XhoI and XbaI were synthesized, annealed, and designated as ABRC321 (FIG. 1A). ABRC321 was self-ligated in two or three copies in correct orientations. For expression of GUS under the control of ABRC321, 1-3 copies ABRC321 was inserted into the XbaI site in MP64, so that the ABRC321 was fused upstream of the barley Amy64 minimal promoter, generating constructs 1xABRC321-GUS, 2x-ABRC321-GUS and 3xABRC321-GUS (FIG. 1(B)). For expression of HVA1 under the control of 3xABRC321, GUS cDNA in construct 3xABRC321-GUS was replaced with HVA1 cDNA, generating construct 3xABRC321-HVA1 (FIG. 1(C)) (SEQ ID NO: 6).
In this study, we used a […] promoter, ABRC321, to express recombinant HVA1 (rHVA1) in plants. […] ABRC321 was generated by fusion of coupling element CE3 and ABRE2 (A2) from the HVA1 ABRC3 and coupling element CE1 from the HVA22 ABRC1 (Shen Q, Zhang P, & Ho T H (1996) Plant Cell 8(7):1107-1119). The reporter gene GUS was fused downstream of 1-3 tandem repeats of ABRC321 and the Amy64 minimal promoter.

[1] = system: leaves and roots in transgenic rice; experiment: GUS activity in leaves and roots of stably transformed transgenic rice; format: in vivo; conditions: 10-day-old T2 seedlings, 10 μM ABA for 16 h, compared among all constructs
Description: as §1
All ABRC321:GUS constructs were also used for rice stable transformation.

[2] = 0.2 μM ABA plus 1 μM NPA, 11 days

Molecule: O=C(O)c1ccccc1C(=O)Nc1cccc2ccccc12 [NPA, N-(1-naphthyl) phtalamic acid]
- growth of crown roots and lateral roots (Tainung 67 seedlings; [2]): also inhibited
- growth of seminal roots (Tainung 67 seedlings; [2]): continued to grow
- growth of all types of roots (Tainung 67 seedlings; 1 μM NPA only, 11 days, WT and transgenic lines): inhibited

Molecule: CC1=CC(=O)CC(C)(C)[C@@]1(O)/C=C/C(C)=C\C(=O)O [ABA, abscisic acid]
- root length and lateral root density (Tainung 67 seedlings; ABA concentration of 0.1 μM, 14 days): significantly increased
- root density (Tainung 67 seedlings; ABA concentrations higher than 0.5 M, 14 days): decreased
- lateral root morphology (Tainung 67 seedlings; ABA concentrations, 14 days): shorter and thicker
- expression of several PIN genes (PIN genes): up-regulated

Molecule: 1xABRC321: synthetic ABA-inducible promoter, one copy of ABRC321 (CE3, A2, CE1 elements) fused upstream of Amy64 minimal promoter and GUS (DNA GGTACCGCAACGCGTGTCCTCCCTACGTGGCGGCTCGAGATTGCCACCGGTCTAGA; synthetic promoter element in GUS reporter construct, further chemistry not given here)
- induction of GUS activity by ABA (rice half seeds): 19 fold

B1: 3xABRC321: synthetic ABA-inducible promoter, three tandem copies of ABRC321 driving GUS (nucleic acid)
DNA: GGTACCGCAACGCGTGTCCTCCCTACGTGGCGGCTCGAGATTGCCACCGGGGTACCGCAACGCGTGTCCTCCCTACGTGGCGGCTCGAGATTGCCACCGGGGTACCGCAACGCGTGTCCTCCCTACGTGGCGGCTCGAGATTGCCACCGGTCTAGA
modifications: Synthetic prompter 3XABRC321
notes: synthetic ABA-inducible promoter, three tandem copies of ABRC321 driving GUS
- induction of GUS activity by ABA (rice half seeds): 33 fold
- ABA induction of GUS activity in leaves and roots [1]: most highly induced by ABA among all constructs

B2: 2xABRC321: synthetic ABA-inducible promoter, two tandem copies of ABRC321 driving GUS (nucleic acid)
DNA: GGTACCGCAACGCGTGTCCTCCCTACGTGGCGGCTCGAGATTGCCACCGGGGTACCGCAACGCGTGTCCTCCCTACGTGGCGGCTCGAGATTGCCACCGGTCTAGA
modifications: synthetic promoter element in GUS reporter construct, further chemistry not given here
- induction of GUS activity by ABA (rice half seeds): 20 fold
